From US9775844B2, “Heterocyclic compounds and uses thereof” (Infinity Pharmaceuticals, Inc., priority 2014, dated 2017)

Columns and labels:
[1] = target: PI3K α (Homo sapiens (Human), UniProt P42336); test: PI3-Kinase Promega ADP-Glo Max assay; format: biochemical
Protocol: (§1) Promega ADP-Glo Max assay kit (Cat. No. V7002) was utilized to determine IC50 values for α, β, δ and γ isoforms of human Class I PI3 kinases (Millipore). […] Reactions were incubated at room temperature for 2 hours followed by addition of 25 uL of stop solution. After a 40-minute incubation at room temperature, 50 uL of Promega detection mix was added followed by incubation for 1 hour at room temperature. Plates were then read on Envision plate reader in lunimescence mode. Data was converted to % inhibition using the following equation below:
(§2) [formula] where S is the sample luminescence, Pos is a positive control without added PI3K, Neg is the negative control without added compound. Data was then plotted as % inhibition vs compound concentration.

[2] = target: PI3K β (Homo sapiens (Human), UniProt P42338); test: PI3-Kinase Promega ADP-Glo Max assay; format: biochemical
Protocol: as §1, §2

[3] = target: PI3K δ (Homo sapiens (Human), UniProt O00329); test: PI3-Kinase Promega ADP-Glo Max assay; format: biochemical
[4] = target: PI3K γ (Homo sapiens (Human), UniProt P48736); test: PI3-Kinase Promega ADP-Glo Max assay; format: biochemical
Protocol: as §1, §2

[5] = target: PI3K-δ in RAJI cells (Homo sapiens (Human), UniProt O00329); test: RAJI p110 δ assay (PI3K-δ selective cellular assay, phospho-AKT); format: cell-based; details: phospho-AKT; read-out: RAJI p110 δ assay IC50
[6] = target: PI3K-γ in RAW264.7 macrophages (Mus musculus (Mouse), UniProt Q9JHG7); test: Raw264.7 p110 γ assay (PI3K-γ selective cellular assay, C5a-stimulated phospho-AKT); format: cell-based; details: for IC50: phospho-AKT, read-out: Raw264.7 p110 γ assay IC50
PI3K-γ in RAW264.7 macrophages, sequence (Q9JHG7 whole entry): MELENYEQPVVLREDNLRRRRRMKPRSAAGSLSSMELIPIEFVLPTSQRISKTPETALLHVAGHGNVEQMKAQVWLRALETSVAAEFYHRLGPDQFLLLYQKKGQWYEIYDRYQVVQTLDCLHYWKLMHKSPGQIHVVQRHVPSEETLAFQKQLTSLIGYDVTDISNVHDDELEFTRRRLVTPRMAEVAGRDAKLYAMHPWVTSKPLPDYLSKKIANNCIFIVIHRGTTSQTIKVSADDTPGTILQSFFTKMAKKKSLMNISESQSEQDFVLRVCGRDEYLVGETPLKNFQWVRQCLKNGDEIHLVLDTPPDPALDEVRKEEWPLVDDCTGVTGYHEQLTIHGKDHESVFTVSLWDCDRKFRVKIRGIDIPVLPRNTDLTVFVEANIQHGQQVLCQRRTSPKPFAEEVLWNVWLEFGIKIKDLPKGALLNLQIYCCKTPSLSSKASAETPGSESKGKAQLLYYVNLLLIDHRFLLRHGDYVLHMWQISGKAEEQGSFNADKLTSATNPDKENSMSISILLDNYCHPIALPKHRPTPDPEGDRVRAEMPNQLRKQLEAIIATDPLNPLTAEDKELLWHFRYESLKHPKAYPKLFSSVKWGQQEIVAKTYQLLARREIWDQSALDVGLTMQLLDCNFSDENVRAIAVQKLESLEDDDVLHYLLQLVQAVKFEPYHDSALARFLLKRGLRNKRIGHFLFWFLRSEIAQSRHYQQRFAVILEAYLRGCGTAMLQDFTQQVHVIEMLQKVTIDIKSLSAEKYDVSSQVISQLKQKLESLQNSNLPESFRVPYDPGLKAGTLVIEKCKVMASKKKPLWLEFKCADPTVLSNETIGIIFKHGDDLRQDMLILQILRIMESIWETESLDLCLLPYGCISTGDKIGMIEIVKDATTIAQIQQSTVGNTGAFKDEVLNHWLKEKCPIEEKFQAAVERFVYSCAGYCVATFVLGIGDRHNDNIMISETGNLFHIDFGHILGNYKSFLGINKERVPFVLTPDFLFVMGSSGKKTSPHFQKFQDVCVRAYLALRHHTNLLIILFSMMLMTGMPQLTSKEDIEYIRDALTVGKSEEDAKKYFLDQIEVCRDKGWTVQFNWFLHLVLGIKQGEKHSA
Description: Briefly, serum-starved RAW264.7 cells are stimulated with a known GPCR agonist C5a. […] Cells can be treated with test compounds prior to, simultaneously with, or subsequent to the stimulation by C5a. RAW 264.7 cells respond to the complement component fragment C5a through activation of the C5a receptor, and the C5a receptor activates macrophages and induces cell migration.

PI3K-δ in RAJI cells, sequence (O00329 whole entry): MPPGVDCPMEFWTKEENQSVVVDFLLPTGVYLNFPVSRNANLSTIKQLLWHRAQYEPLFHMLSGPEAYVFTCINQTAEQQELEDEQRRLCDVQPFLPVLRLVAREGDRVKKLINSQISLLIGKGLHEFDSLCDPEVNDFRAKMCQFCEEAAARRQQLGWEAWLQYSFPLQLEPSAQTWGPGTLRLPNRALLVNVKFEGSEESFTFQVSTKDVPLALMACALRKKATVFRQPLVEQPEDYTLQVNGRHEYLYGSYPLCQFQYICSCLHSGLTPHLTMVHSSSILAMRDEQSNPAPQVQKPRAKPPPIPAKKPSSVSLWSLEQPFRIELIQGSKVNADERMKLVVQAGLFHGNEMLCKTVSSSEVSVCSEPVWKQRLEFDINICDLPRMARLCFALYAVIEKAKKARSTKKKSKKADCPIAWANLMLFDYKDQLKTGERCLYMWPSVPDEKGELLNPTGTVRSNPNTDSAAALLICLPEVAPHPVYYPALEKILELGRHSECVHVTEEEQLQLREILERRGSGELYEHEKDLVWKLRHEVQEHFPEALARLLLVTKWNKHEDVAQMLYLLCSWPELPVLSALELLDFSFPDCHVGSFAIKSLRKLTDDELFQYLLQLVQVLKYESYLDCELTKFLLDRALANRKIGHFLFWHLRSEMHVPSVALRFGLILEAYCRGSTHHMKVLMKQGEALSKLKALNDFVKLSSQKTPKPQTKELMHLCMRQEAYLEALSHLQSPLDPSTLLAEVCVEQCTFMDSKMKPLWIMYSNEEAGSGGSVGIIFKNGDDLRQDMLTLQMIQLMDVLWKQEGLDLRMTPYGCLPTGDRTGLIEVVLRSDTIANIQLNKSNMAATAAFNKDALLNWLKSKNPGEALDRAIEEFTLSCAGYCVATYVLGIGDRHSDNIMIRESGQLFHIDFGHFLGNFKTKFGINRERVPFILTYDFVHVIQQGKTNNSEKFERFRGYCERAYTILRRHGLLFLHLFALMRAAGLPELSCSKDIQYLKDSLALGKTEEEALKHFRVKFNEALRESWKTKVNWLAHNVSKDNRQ
PI3K-δ in RAJI cells, sequence (P27986 whole entry partner): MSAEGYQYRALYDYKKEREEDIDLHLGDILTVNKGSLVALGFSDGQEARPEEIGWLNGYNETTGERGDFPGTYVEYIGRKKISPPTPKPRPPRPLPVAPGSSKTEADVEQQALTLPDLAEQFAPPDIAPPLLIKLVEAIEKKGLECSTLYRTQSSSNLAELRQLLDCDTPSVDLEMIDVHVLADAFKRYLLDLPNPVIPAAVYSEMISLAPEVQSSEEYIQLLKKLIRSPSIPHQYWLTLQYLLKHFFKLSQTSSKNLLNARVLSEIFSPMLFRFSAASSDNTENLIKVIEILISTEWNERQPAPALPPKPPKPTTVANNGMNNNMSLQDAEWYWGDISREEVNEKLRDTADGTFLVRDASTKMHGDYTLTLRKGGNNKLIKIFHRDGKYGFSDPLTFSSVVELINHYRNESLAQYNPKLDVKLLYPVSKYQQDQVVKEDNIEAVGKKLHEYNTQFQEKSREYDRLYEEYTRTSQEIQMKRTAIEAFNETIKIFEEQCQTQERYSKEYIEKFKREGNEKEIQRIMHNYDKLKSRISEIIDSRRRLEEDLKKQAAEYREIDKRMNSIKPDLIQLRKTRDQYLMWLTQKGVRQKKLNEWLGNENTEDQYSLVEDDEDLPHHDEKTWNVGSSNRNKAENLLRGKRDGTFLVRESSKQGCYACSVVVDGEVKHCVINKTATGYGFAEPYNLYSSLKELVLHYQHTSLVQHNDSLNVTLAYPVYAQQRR
PI3K δ, sequence (O00329 whole entry): as the sequence (O00329 whole entry) above
PI3K δ, sequence (P27986 whole entry partner): as the sequence (P27986 whole entry partner) above
PI3K β, sequence (P42338 whole entry): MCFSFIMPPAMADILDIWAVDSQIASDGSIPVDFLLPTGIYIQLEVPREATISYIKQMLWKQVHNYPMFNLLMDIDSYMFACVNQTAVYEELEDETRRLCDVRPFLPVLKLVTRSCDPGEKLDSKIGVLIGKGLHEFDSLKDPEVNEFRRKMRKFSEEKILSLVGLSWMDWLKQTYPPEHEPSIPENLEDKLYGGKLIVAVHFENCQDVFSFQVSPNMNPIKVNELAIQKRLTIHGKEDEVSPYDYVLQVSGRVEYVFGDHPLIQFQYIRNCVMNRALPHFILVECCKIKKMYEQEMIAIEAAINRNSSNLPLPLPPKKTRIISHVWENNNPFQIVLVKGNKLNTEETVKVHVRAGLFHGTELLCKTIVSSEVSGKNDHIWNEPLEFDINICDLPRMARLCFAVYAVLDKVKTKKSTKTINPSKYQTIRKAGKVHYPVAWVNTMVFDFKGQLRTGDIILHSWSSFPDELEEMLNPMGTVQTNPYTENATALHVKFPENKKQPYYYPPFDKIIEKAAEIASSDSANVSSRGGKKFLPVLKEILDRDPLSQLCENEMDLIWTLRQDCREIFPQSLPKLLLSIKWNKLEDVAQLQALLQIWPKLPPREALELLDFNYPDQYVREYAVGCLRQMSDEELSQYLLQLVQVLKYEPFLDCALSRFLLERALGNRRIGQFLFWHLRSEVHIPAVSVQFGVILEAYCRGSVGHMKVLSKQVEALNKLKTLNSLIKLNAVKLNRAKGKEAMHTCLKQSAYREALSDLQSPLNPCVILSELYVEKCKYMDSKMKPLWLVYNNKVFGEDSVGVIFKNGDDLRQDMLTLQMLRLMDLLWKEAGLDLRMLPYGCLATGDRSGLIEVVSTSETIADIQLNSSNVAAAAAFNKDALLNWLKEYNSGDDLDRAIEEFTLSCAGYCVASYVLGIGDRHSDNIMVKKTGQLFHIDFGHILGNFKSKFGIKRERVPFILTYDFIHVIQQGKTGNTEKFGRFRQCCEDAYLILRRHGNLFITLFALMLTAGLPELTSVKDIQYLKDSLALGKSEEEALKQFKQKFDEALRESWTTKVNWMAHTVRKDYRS
PI3K β, sequence (P27986 whole entry partner): as the sequence (P27986 whole entry partner) above

Row | SMILES | IC50 [1] | IC50 [2] | IC50 [3] | IC50 [4] | PI3K δ/PI3K γ IC50 (selectivity) [4] | IC50 [5] | RAJIδ/Raw264.7 γ IC50 (selectivity) [6] | IC50 [6]
1 | C[C@H](NC(=O)c1c(N)nn2cccnc12)c1cc2cccc(C#Cc3cocn3)c2c(=O)n1-c1ccccc1 [Compound 66] | 5 to 10 µM | 1 to 5 µM | 1 to 5 µM | 0.001 to 0.1 µM | X (X = 10 to <50) | 0.1 to 0.5 µM | X (X = 10 to <50) | 0.001 to 0.05 µM
2 | Cc1ncccc1C#Cc1cccc2cc([C@H](C)NC(=O)c3c(N)nn4cccnc34)n(-c3ccccc3)c(=O)c12 [Compound 67] | 5 to 10 µM | 5 to 10 µM | 5 to 10 µM | 1 to 5 µM | W (W = >1 to <10) | 1 to 10 µM | X (X = 10 to <50) | 0.1 to 10 µM
3 | Cc1cnc(C(=O)N[C@@H](C)c2cc3cccc(C#Cc4cnn(C)c4)c3c(=O)n2-c2ccccc2)c(N)n1 [Compound 68] | 5 to 10 µM | 5 to 10 µM | 5 to 10 µM | 1 to 5 µM | W (W = >1 to <10) | 1 to 10 µM | W (W = >1 to <10) | 0.1 to 10 µM
4 | C/C=C/c1cccc2cc([C@H](C)NC(=O)c3c(N)nn4cccnc34)n(-c3ccccc3)c(=O)c12 [Compound 70] | 5 to 10 µM | 5 to 10 µM | 5 to 10 µM | 0.1 to 0.5 µM | X (key: V = 0.1 to 1; W = >1 to <10; X = 10 to <50; Y = 50 to <850) | 0.001 to 0.1 µM | X (X = 10 to <50) | 0.001 to 0.05 µM
5 | C[C@H](NC(=O)c1c(N)nn2cccnc12)c1cc2cccc(C#CC3CCNCC3)c2c(=O)n1-c1ccccc1 [Compound 72] | 5 to 10 µM | 5 to 10 µM | 5 to 10 µM | 0.5 to 1 µM | X (X = 10 to <50) | 1 to 10 µM | W (W = >1 to <10) | 0.1 to 10 µM
6 | C[C@H](NC(=O)c1c(N)nn2cccnc12)c1cc2cccc(C#Cc3ccnn3C)c2c(=O)n1-c1ccccc1 [Compound 73] | 5 to 10 µM | 5 to 10 µM | 5 to 10 µM | 0.1 to 0.5 µM | X (X = 10 to <50) | 0.5 to 1 µM | Y (Y = 50 to <850) | 0.001 to 0.05 µM
7 | C[C@H](NC(=O)c1c(N)nn2cccnc12)c1cc2cccc(C#CC3CNC3)c2c(=O)n1-c1ccccc1 [Compound 74] | 5 to 10 µM | 5 to 10 µM | 1 to 5 µM | 0.5 to 1 µM | W (key: V = 0.1 to 1; W = >1 to <10; X = 10 to <50; Y = 50 to <850) | 1 to 10 µM | W (key: V = 0.1 to 1; W = >1 to <10; X = 10 to <50; Y = 50 to <850) | 0.1 to 10 µM
8 | Cc1ncsc1C#Cc1cccc2cc([C@H](C)NC(=O)c3c(N)nn4cccnc34)n(-c3ccccc3)c(=O)c12 [Compound 75] | 5 to 10 µM | 5 to 10 µM | 5 to 10 µM | 1 to 5 µM | W (W = >1 to <10) | 1 to 10 µM | Y (Y = 50 to <850) | 0.001 to 0.05 µM
9 | Cc1ncc(C#Cc2cccc3cc([C@H](C)NC(=O)c4c(N)nn5cccnc45)n(-c4ccccc4)c(=O)c23)s1 [Compound 76] | 5 to 10 µM | 5 to 10 µM | 5 to 10 µM | 0.1 to 0.5 µM | Y (Y = 50 to <850) | 0.1 to 0.5 µM | X (X = 10 to <50) | 0.001 to 0.05 µM
10 | Cc1ccc(C#Cc2cccc3cc([C@H](C)NC(=O)c4c(N)nn5cccnc45)n(-c4ccccc4)c(=O)c23)cn1 [Compound 77] | 5 to 10 µM | 5 to 10 µM | 5 to 10 µM | 0.001 to 0.1 µM | Y (Y = 50 to <850) | 0.5 to 1 µM | Y (Y = 50 to <850) | 0.001 to 0.05 µM
11 | Cc1scnc1C#Cc1cccc2cc([C@H](C)NC(=O)c3c(N)nn4cccnc34)n(-c3ccccc3)c(=O)c12 [Compound 78] | 5 to 10 µM | 5 to 10 µM | 5 to 10 µM | 0.1 to 0.5 µM | X (X = 10 to <50) | 0.1 to 0.5 µM | X (X = 10 to <50) | 0.001 to 0.05 µM
12 | Cc1nc(C)c(C#Cc2cccc3cc([C@H](C)NC(=O)c4c(N)nn5cccnc45)n(-c4ccccc4)c(=O)c23)s1 [Compound 79] | 5 to 10 µM | 5 to 10 µM | 5 to 10 µM | 0.5 to 1 µM | X (X = 10 to <50) | 1 to 10 µM | Y (Y = 50 to <850) | 0.001 to 0.05 µM
13 | C[C@H](NC(=O)c1c(N)nn2cccnc12)c1cc2cccc(C#Cc3cn[nH]c3)c2c(=O)n1-c1ccccc1 [Compound 80] | 1 to 5 µM | 1 to 5 µM | 5 to 10 µM | 0.001 to 0.1 µM | Y (key: V = 0.1 to 1; W = >1 to <10; X = 10 to <50; Y = 50 to <850) | 0.1 to 0.5 µM | Y (key: V = 0.1 to 1; W = >1 to <10; X = 10 to <50; Y = 50 to <850) | 0.001 to 0.05 µM
14 | CC(=O)N1CCC(C#Cc2cccc3cc([C@H](C)NC(=O)c4c(N)nn5cccnc45)n(-c4ccccc4)c(=O)c23)CC1 [Compound 82] | 5 to 10 µM | 5 to 10 µM | 5 to 10 µM | 0.1 to 0.5 µM | X (key: V = 0.1 to 1; W = >1 to <10; X = 10 to <50; Y = 50 to <850) | 0.5 to 1 µM | X (key: V = 0.1 to 1; W = >1 to <10; X = 10 to <50; Y = 50 to <850) | 0.001 to 0.05 µM
15 | C[C@H](NC(=O)c1c(N)nn2cccnc12)c1cc2cccc(C#CC3CCN(S(C)(=O)=O)CC3)c2c(=O)n1-c1ccccc1 [Compound 83] | 5 to 10 µM | 5 to 10 µM | 5 to 10 µM | 0.5 to 1 µM | X (key: V = 0.1 to 1; W = >1 to <10; X = 10 to <50; Y = 50 to <850) | 0.5 to 1 µM | X (key: V = 0.1 to 1; W = >1 to <10; X = 10 to <50; Y = 50 to <850) | 0.001 to 0.05 µM
16 | C[C@H](NC(=O)c1c(N)nn2cccnc12)c1cc2cccc(C#CC3CCOC3)c2c(=O)n1-c1ccccc1 (some centres unmarked) [Compound 84] | 5 to 10 µM | 5 to 10 µM | 5 to 10 µM | 0.001 to 0.1 µM | Y (Y = 50 to <850) | 0.1 to 0.5 µM | X (X = 10 to <50) | 0.001 to 0.05 µM
17 | C[C@H](NC(=O)c1c(N)nn2cccnc12)c1cc2ccc3ccccc3c2c(=O)n1-c1ccccc1 [Compound 89] | 5 to 10 µM | 5 to 10 µM | 5 to 10 µM | 0.5 to 1 µM | X (X = 10 to <50) | 1 to 10 µM | Y (Y = 50 to <850) | 0.001 to 0.05 µM
18 | C[C@H](NC(=O)c1c(N)nn2cccnc12)c1cc2cccc(NC(=O)c3cnn(C)c3)c2c(=O)n1-c1ccccc1 [Compound 90] | 5 to 10 µM | 5 to 10 µM | 5 to 10 µM | 1 to 5 µM | W (key: V = 0.1 to 1; W = >1 to <10; X = 10 to <50; Y = 50 to <850) | 1 to 10 µM | X (key: V = 0.1 to 1; W = >1 to <10; X = 10 to <50; Y = 50 to <850) | 0.1 to 10 µM
19 | C[C@H](NC(=O)c1c(N)nn2cccnc12)c1cc2cccc(CC(=O)c3cnn(C)c3)c2c(=O)n1-c1ccccc1 [Compound 91] | 5 to 10 µM | 5 to 10 µM | 5 to 10 µM | 0.5 to 1 µM | W (W = >1 to <10) | 0.1 to 0.5 µM | W (W = >1 to <10) | 0.1 to 10 µM
